US11130132B2, “Microfluidic neutrophil assays and systems for disease detection” (The General Hospital Corporation, priority 2016, dated 2021)

B1: IFN-γ: immune-modulator previously reported to be elevated in septic blood, spiked into whole blood (protein, UniProt P01579 24-161, looked up)
Interferon gamma: QDPYVKEAENLKKYFNAGHSDVADNGTLFLGILKNWKEESDRKIMQSQIVSFYFKLFKNFKDDQSIQKSVETIKEDMNVKFFNSNKKKRDDFEKLTNYSVTDLNVQRKAIHELIQVMAELSPAAKTGKRKRSQMLFRG
B2: G-SCF: immune-modulator previously reported to be elevated in septic blood, spiked into whole blood (protein, UniProt P09919 31-207, looked up)
Granulocyte …: TPLGPASSLPQSFLLKCLEQVRKIQGDGAALQEKLVSECATYKLCHPEELVLLGHSLGIPWAPLSSCPSQALQLAGCLSQLHSGLFLYQGLLQALEGISPELGPTLDTLQLDVADFATTIWQQMEELGMAPALQPTQGAMPAFASAFQRRAGGVLVASHLQSFLEVSYRVLRHLAQP

Test system: neutrophils in whole blood
Assay: blood-spiking with immune-modulators: spontaneous neutrophil motility in whole blood in the microfluidic device
Type: cell-based, human
Settings: 37° C. 30 min before loading
Description: Prior to the addition of a blood sample, devices were primed with IMDM containing 10% FBS and 1% Fibronectin (from human plasma, Sigma) by pipetting 50 μl into the sample loading chamber and around each device, such that a dome of liquid formed on top, and the outer edge of the device in contact with the coverslip was surrounded. The devices were placed under a vacuum for at least 10 minutes, and then removed and allowed to re-pressurize and equilibrate for at least 15 minutes to remove bubbles.
Whole blood samples to be loaded in the device were diluted 1:1 in IMDM with 20% FBS and stained with Hoechst 33342 dye at 32 μM for 15 minutes prior to loading. A small droplet of 0.5 μL of stained blood was then pipetted into the center of the device using a gel-loading tip. The blood droplet is pipetted into the central chamber and time-lapse imaging of the mazes was then used to measure neutrophil behavior over a period of 4 hours.
Cell motility was imaged at 10× magnification using a fully automated fluorescent Nikon TiE inverted wide field microscope with a biochamber heated to 37° C. with 5% CO2. Each microfluidic device included 8 imaging fields, each containing one […]. Each field was imaged every 2 minutes over the course of 4 hours to allow accurate tracking of cell motility.
Automated cell tracking was performed using ImageCV, TrackPy, and SciKit-Learn packages in Python. Files were converted to standard AVI format using Nikon Elements or ImageJ. Initial processing was performed to allow brightfield tracking and included removing the background. Cell tracking was performed automatically from brightfield images for most of the time-lapse sequences. Cells were tracked by size, velocity, and directionality. These tracks were written to individual CSV files for each imaging field. The specific variables for each track included: track number, video frame, cell diameter, x position, y position, distance, and velocity. Cell motility pattern identification and definitions are detailed in Table 2. Figures were prepared using Illustrator CS5 Version 15.0.0 (Adobe Systems).
For plasma-swapping experiments, 1 mL of whole blood was centrifuged at 200 g for 10 minutes to pellet cells. The platelet-rich plasma supernatants were then drawn from the tubes and transferred into fresh tubes. Platelets were then pelleted at 1900 g for 10 minutes and the plasma fraction drawn into fresh tubes. Cell pellets were then re-suspended in the appropriate exchanged plasma and an aliquot loaded into the device. For blood-spiking experiments, immune-modulators were added to the media at 2× the target dose prior to mixing 1:1 with whole blood. Once mixed, spiked blood samples were incubated at 37° C. for 30 min prior to loading.

[1] = whole blood spiked at 0.1 ng/mL
[2] = whole blood spiked at 1.0 ng/mL
[3] = whole blood spiked at 0.5 ng/mL
[4] = whole blood spiked at 1.8 ng/mL
[5] = whole blood spiked at 0.3 ng/mL

| Molecule | Oscillations (O) [1] | Pausing [1] | Spontaneously migrating cells (N) [1] | Oscillations (O) [2] | Pausing [2] | Spontaneously migrating cells (N) [2] | Oscillations (O) [3] | Pausing [3] | Spontaneously migrating cells (N) [3] | Oscillations (O) [4] | Pausing [4] | Spontaneously migrating cells (N) [4] | Spontaneously migrating cells (N) (whole blood spiked at 2.5 ng/mL) | Oscillations (O) [5] | Pausing [5] | Spontaneously migrating cells (N) [5] |
| --- | --- | --- | --- | --- | --- | --- | --- | --- | --- | --- | --- | --- | --- | --- | --- | --- |
| IL1-β: immune-modulator previously reported to be elevated in septic blood, spiked into whole blood | 1.4 ± 1.5 | 2.4 ± 2.8 | 3.8 ± 3.2 | 1.0 | 1.0 | 0.3 ± 0.1 |  |  |  |  |  |  |  |  |  |  |
| TNF-α | 1.7 ± 3.4 | 4.8 ± 8.8 | 7.2 ± 13.9 | 0.7 ± 1.2 | 1.3 ± 0.6 | 2.7 ± 1.2 | 1.3 ± 1.2 | 15.7 ± 14.2 | 25.3 ± 26.1 |  |  |  |  |  |  |  |
| B1 |  |  |  |  |  |  |  |  |  | 4.8 ± 6.3 | 7.0 ± 6.9 | 10.8 ± 12.4 | 0 ± 0.0 |  |  |  |
| B2 |  |  |  |  |  |  | 0.3 ± 0.6 | 2.0 ± 1.7 | 2.3 ± 2.3 |  |  |  |  | 4.2 ± 9.7 | 4.7 ± 9.6 | 6.7 ± 13.6 |
